# In patent US20250296959A1, “B7-H3 TARGETING PEPTIDES AND CONSTRUCTS THEREOF” (Mariana Oncology Inc., priority 2024, published 2025):
# Starred links: 1 amine or outer side, 2 acyl side, 3 side chain; linkers in the order of their positions; H or OH if unused. Positions of bridges follow the written chain, without caps; N, C: chain ends. Non-standard residues stand in square brackets, D forms with d. Residues, ends and D or L forms follow the SMILES beside them. Groups on a side chain read outwards from the residue. *: point of attachment. Ala(1-CH2CO2H-4-piperidyl) = N[C@@H](CC1CCN(CC(=O)O)CC1)C(=O)O; Ala(piperidin-4-yl) = O=C([C@H](CC1CCN([*:3])CC1)N[*:1])[*:2]; DOTA = O=C(O)CN1CCN(CC(=O)O)CCN(CC(=O)*)CCN(CC(=O)O)CC1; Trp(5-F) = N[C@@H](Cc1c[nH]c2ccc(F)cc12)C(=O)O; X13 = NC(=O)N1CCC(C[C@H](N[*:1])C(=O)[*:2])CC1; X1 = C[C@@H](c1ccccc1)[C@H](N[*:1])C(=O)[*:2]; 1Nal = N[C@@H](Cc1cccc2ccccc12)C(=O)O; Ala(4-THP) = N[C@@H](CC1CCOCC1)C(=O)O; X3 = O=C([C@H](CCC1CCC1)N[*:1])[*:2]; AEF = NCCOc1ccc(C[C@H](N)C(=O)O)cc1; Val(3-OH) = CC(C)(O)[C@H](N)C(=O)O; PEG4 = NCCOCCOCCOCCOCCC(=O)O; Tle = CC(C)(C)[C@H](N)C(=O)O; hLeu = CC(C)CC[C@H](N)C(=O)O; αMeP = C[C@@]1(C(=O)O)CCCN1
# Target: T1, human 4lg B7-H3 (Homo sapiens, UniProt Q5ZPR3)
# T1 sequence (Q5ZPR3 29-534): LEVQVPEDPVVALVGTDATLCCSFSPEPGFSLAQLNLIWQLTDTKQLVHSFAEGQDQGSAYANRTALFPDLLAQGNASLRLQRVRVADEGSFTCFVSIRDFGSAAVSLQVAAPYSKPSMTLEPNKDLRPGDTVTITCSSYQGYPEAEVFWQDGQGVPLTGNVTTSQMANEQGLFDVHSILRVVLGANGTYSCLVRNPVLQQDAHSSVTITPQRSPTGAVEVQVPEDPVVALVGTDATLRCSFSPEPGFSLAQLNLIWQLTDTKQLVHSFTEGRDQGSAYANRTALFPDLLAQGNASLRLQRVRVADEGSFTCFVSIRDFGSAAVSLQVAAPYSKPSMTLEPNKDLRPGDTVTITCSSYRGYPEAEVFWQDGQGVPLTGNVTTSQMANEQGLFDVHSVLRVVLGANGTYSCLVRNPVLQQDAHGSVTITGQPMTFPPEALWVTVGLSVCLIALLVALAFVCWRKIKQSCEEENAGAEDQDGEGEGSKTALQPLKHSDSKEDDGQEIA
# Assay: Affinity determination by surface plasmon resonance (SPR) to 4Ig B7-H3
# Conditions: SPR KD—25° C., 4Ig B7-H3; 25° C. flow cell temperature
row,Kd,SMILES
1,< 1 nM,"CC(=O)N[C@@H](CCC(C)C)C(=O)N[C@@H](Cc1ccc(O)cc1)C(=O)N[C@H]1CSSC[C@@H](C(=O)N[C@@H](Cc2c[nH]c3ccc(F)cc23)C(=O)N[C@@H](Cc2ccccc2)C(=O)N[C@H](C(N)=O)[C@@H](C)O)NC(=O)[C@H](Cc2ccc(O)cc2)NC(=O)[C@H](C(C)C)NC(=O)[C@H](CC(=O)O)NC(=O)[C@H](Cc2ccc(OCCNC(=O)CN3CCN(CC(=O)O)CCN(CC(=O)O)CCN(CC(=O)O)CC3)cc2)NC(=O)[C@H](CCCCN)NC(=O)CNC(=O)[C@H](C(C)C)NC1=O [compound 295, Ac-hLeu-Y-C-V-G-K-AEF(DOTA)-D-V-Y-C-5FW-F-Thr-CONH2] (Ac-[hLeu]YCVGK[AEF](DOTA)DVYC[Trp(5-F)]FT-NH2; disulfide 3-11)"
2,1 to 10 nM,"CC(=O)N[C@@H](CCC(C)C)C(=O)N[C@@H](Cc1ccc(O)cc1)C(=O)N[C@H]1CSSC[C@@H](C(=O)N[C@@H](Cc2cccc3ccccc23)C(=O)N[C@@H](Cc2ccccc2)C(=O)N2CCC[C@@]2(C)C(=O)N[C@H](CCCCNC(=O)CN2CCN(CC(=O)O)CCN(CC(=O)O)CCN(CC(=O)O)CC2)C(N)=O)NC(=O)[C@H](Cc2ccc(O)cc2)NC(=O)[C@H](C(C)C)NC(=O)[C@H](CC(=O)O)NC(=O)[C@H](Cc2ccc(O)cc2)NC(=O)[C@H](CCCCN)NC(=O)CNC(=O)[C@H](C(C)(C)C)NC1=O [compound 246, Ac-hLeu-Y-C-Tbg-G-K-Y-D-V-Y-C-1Nal-F-aMePro-dLys(DOTA)-CONH2] (Ac-[hLeu]YC[Tle]GKYDVYC[1Nal]F[αMeP][dK](DOTA)-NH2; disulfide 3-11)"

# Same assay, conditions: SPR KD—37° C., 4Ig B7-H3; 37° C. flow cell temperature
row,Kd,SMILES
1,< 1 nM,"CC(=O)N[C@@H](CCC(C)C)C(=O)N[C@@H](Cc1ccc(O)cc1)C(=O)N[C@H]1CSSC[C@@H](C(=O)N[C@@H](Cc2c[nH]c3ccc(F)cc23)C(=O)N[C@H](C(=O)N[C@H](C(=O)N[C@H](C)C(=O)O)C(C)(C)O)[C@@H](C)c2ccccc2)NC(=O)[C@H](Cc2ccc(O)cc2)NC(=O)[C@H](C(C)C)NC(=O)[C@H](CC(=O)O)NC(=O)[C@H](CC2CCN(C(=O)CCOCCOCCOCCOCCNC(=O)CN3CCN(CC(=O)O)CCN(CC(=O)O)CCN(CC(=O)O)CC3)CC2)NC(=O)[C@H](CC2CCN(C(N)=O)CC2)NC(=O)CNC(=O)[C@H](C(C)(C)C)NC1=O [compound 514, Ac-hLeu-Y-C-Tbg-G-Pip(CONH2)Ala-Pip(PEG4-DOTA)Ala-D-V-Y-C-5FW-[(2S, 3S)beta-Me-Phe]-hydroxyVal-dAla-COOH] (Ac-[hLeu]YC[Tle]G[X13][Ala(piperidin-4-yl)]([PEG4-DOTA])DVYC[Trp(5-F)][X1][Val(3-OH)][dA]-OH; disulfide 3-11)"
2,10 to 100 nM,"CC(=O)N[C@@H](CCC(C)C)C(=O)N[C@@H](Cc1ccc(O)cc1)C(=O)N[C@H]1CSSC[C@@H](C(=O)N[C@@H](Cc2c[nH]c3ccc(F)cc23)C(=O)N[C@@H](Cc2ccccc2)C(=O)N[C@H](C(=O)N[C@H](CCCCNC(=O)CN2CCN(CC(=O)O)CCN(CC(=O)O)CCN(CC(=O)O)CC2)C(=O)O)C(C)(C)O)NC(=O)[C@H](Cc2ccc(O)cc2)NC(=O)[C@H](C(C)C)NC(=O)[C@H](CC(=O)O)NC(=O)[C@H](CC2CCOCC2)NC(=O)[C@@H]2CCCN2C(=O)CNC(=O)[C@H](C(C)(C)C)NC1=O [compound 349, Ac-hLeu-Y-C-Tbg-G-Pro-ThpA-D-V-Y-C-5FW-F-hydroxyVal-dLys(DOTA)-COOH] (Ac-[hLeu]YC[Tle]GP[Ala(4-THP)]DVYC[Trp(5-F)]F[Val(3-OH)][dK](DOTA)-OH; disulfide 3-11)"
3,< 1 nM,"CC(=O)N[C@@H](CCC1CCC1)C(=O)N[C@@H](Cc1ccc(O)cc1)C(=O)N[C@H]1CSSC[C@@H](C(=O)N[C@@H](Cc2c[nH]c3ccc(F)cc23)C(=O)N[C@@H](Cc2ccccc2)C(=O)N[C@H](C(=O)N[C@H](CCCCNC(=O)CN2CCN(CC(=O)O)CCN(CC(=O)O)CCN(CC(=O)O)CC2)C(=O)O)C(C)(C)O)NC(=O)[C@H](Cc2ccc(O)cc2)NC(=O)[C@H](C(C)C)NC(=O)[C@H](CC(=O)O)NC(=O)[C@H](CC2CCOCC2)NC(=O)[C@H](CC2CCNCC2)NC(=O)CNC(=O)[C@H](C(C)(C)C)NC1=O [compound 443, Ac-hCba-Y-C-Tbg-G-PipAla-ThpA-D-V-Y-C-5FW-F-hydroxyVal-dLys(DOTA)-COOH] (Ac-[X3]YC[Tle]G[Ala(piperidin-4-yl)][Ala(4-THP)]DVYC[Trp(5-F)]F[Val(3-OH)][dK](DOTA)-OH; disulfide 3-11)"
4,< 1 nM,"CC(=O)N[C@@H](CCC(C)C)C(=O)N[C@@H](Cc1ccc(O)cc1)C(=O)N[C@H]1CSSC[C@@H](C(=O)N[C@@H](Cc2c[nH]c3ccc(F)cc23)C(=O)N[C@@H](Cc2ccccc2)C(=O)N[C@H](C(N)=O)[C@@H](C)O)NC(=O)[C@H](Cc2ccc(O)cc2)NC(=O)[C@H](C(C)C)NC(=O)[C@H](CC(=O)O)NC(=O)[C@H](Cc2ccc(OCCNC(=O)CN3CCN(CC(=O)O)CCN(CC(=O)O)CCN(CC(=O)O)CC3)cc2)NC(=O)[C@H](CCCCN)NC(=O)CNC(=O)[C@H](C(C)C)NC1=O [compound 295, Ac-hLeu-Y-C-V-G-K-AEF(DOTA)-D-V-Y-C-5FW-F-Thr-CONH2] (Ac-[hLeu]YCVGK[AEF](DOTA)DVYC[Trp(5-F)]FT-NH2; disulfide 3-11)"
5,1 to 10 nM,"CC(=O)N[C@@H](CCC(C)C)C(=O)N[C@@H](Cc1ccc(O)cc1)C(=O)N[C@H]1CSSC[C@@H](C(=O)N[C@@H](Cc2c[nH]c3ccc(F)cc23)C(=O)N[C@@H](Cc2ccccc2)C(=O)N[C@H](C(N)=O)C(C)(C)O)NC(=O)[C@H](Cc2ccc(O)cc2)NC(=O)[C@H](C(C)C)NC(=O)[C@H](CC(=O)O)NC(=O)[C@H](CC2CCN(CC(=O)O)CC2)NC(=O)[C@H](CCCCNC(=O)CN2CCN(CC(=O)O)CCN(CC(=O)O)CCN(CC(=O)O)CC2)NC(=O)CNC(=O)[C@H](C(C)(C)C)NC1=O [compound 419, Ac-hLeu-Y-C-Tbg-G-Lys(DOTA)-Pip(CH2COOH)Ala-D-V-Y-C-5FW-F-hydroxyVal-CONH2] (Ac-[hLeu]YC[Tle]GK(DOTA)[Ala(1-CH2CO2H-4-piperidyl)]DVYC[Trp(5-F)]F[Val(3-OH)]-NH2; disulfide 3-11)"
